Assay results reported in patent US6153756A, “Soluble prodrugs of paclitaxel” (priority 1997, dated 2000).
“And” between values parts separate entries of the source, which are not always exact repeats. Equal entries are not always repeated. Structures can show the parent of a compound that is named as a salt. Where two headings read alike, the source gives them in different places.

Columns and labels:
[1] = Solubility of 2'-MPM in deionized water; assay type: physicochemical
Description: Solubility: Deionized water (0.5 ml) was added to three samples of the 2'-MPM (1.54 mg, 0.97 mg and 0.80 mg) and the flask sonicated for approximately one (1) minute.

[2] = Extraction of 2'-MPM from water into CH2Cl2; assay type: physicochemical; details: three samples (1.2, 1.0, 0.98 mg) in water (1 ml) stirred with CH2Cl2 (1 ml)
Description: Extraction: Three samples (1.2,1.0 and 0.98 mg) were dissolved in water (1 ml) and vigorously stirred with CH2 Cl2 (1 ml). The organic phase was transferred to a clean, tared vial and concentrated in vacuo. The residue was weighed and compared to the theoretical input to gauge the effectiveness of the extraction procedure. Average return for this extraction was about 44% of theoretical.

[3] = Aqueous stability of 2'-MPM in H2O and 0.2M NaCl; assay type: physicochemical
Description: Aqueous Stability: The stability of the prodrug in H2 O and 0.2M NaCl was examined at both room temperature and under refrigerated conditions. Samples in H2 O (0.54 mg in 2 ml) and NaCl (0.57 mg in 2 ml) at room temperature were examined at two minute time intervals (0 through 12 minutes), 2 hours and 24 hours. […] At 4° C. the product concentration was unchanged at 24 and 48 hours but decreased to 90% after 72 hours. […] At 4° C. the product concentration was unchanged at 24 hours, was 91% at 48 hours and was 88% at 72 hours.

[4] = Water solubility of paclitaxel and of its prodrugs (general statements); assay type: physicochemical; details: listed advantage of the novel salts
[5] = test system: neoplasms including breast; details: several types of neoplasms including breast; cited from earlier work
[6] = Stability of paclitaxel 2'-methylpyridinium acetate (HPLC); assay type: physicochemical
Description: The onium salt paclitaxel-2'-MPA was prepared by the method of Nicolaou et al., Angew. Chim. Int. Engl., 33:1583-1587 ([…]). A 2.40 mg/ml solution of the paclitaxel-2'-MPA was prepared by dissolving the salt (10.2 mg) in a solution of water (3.024 ml) and polyethylene glycol (1.234 ml). Samples of this solution were frozen. The frozen samples were slowly warmed to room temperature and homogenized with CH3 CN (50 μl). An aliquot (50 μl) was removed and diluted to a final volume of 200 μl with deionized H2 O and analyzed via HPLC (20 μl injection).
Analysis conditions were as follows: […]
Mobile phase: 50% MeOH/80 mM NH4 OAc

[7] = Stability of 2'-MPA after HPLC purification in presence of excess acetate; assay type: physicochemical; details: excess acetate ion, upon concentration of HPLC effluent, to paclitaxel
[8] = freshly prepared solution, 0.53 mg/ml in CH3CN

## CC(=O)O[C@H]1C(=O)[C@@]2(C)[C@H]([C@H](OC(=O)c3ccccc3)[C@]3(O)C[C@H](OC(=O)[C@H](Oc4cccc[n+]4C)[C@@H](NC(=O)c4ccccc4)c4ccccc4)C(C)=C1C3(C)C)[C@]1(OC(C)=O)CO[C@@H]1C[C@@H]2O [2'-MPM, Paclitaxel-2'-Methylpyridinium Mesylate]
[1]; deionized water
  upper limit of solubility: has not been attained as yet
[1]; deionized water 0.5 ml, sonicated approx. 1 min
  Solubility: sample amount for which solution was attained: 0.97 mg and 0.80 mg
[1]; largest sample (1.54 mg), on top of 0.5 ml deionized water
  Solubility: additional water required to provide a free-flowing solution: 0.1 mL
[2]
  Average return for extraction into CH2Cl2: about 44 % of theoretical
[3]; 0.2M NaCl, 4° C., 24 hours
  product concentration: unchanged
[3]; 0.2M NaCl, 4° C., 48 hours, read-out: product concentration
  remaining at 48 h: 91%
[3]; 0.2M NaCl, 4° C., read-out: product concentration
  remaining at 72 h: 88%
[3]; 0.2M NaCl, room temperature, 2 hours, read-out: drop in product concentration
  degraded at 2 h: 1 to 2%
[3]; 0.2M NaCl, room temperature, 24 hours, read-out: product concentration
  remaining at 24 h: 70%
[3]; 0.2M NaCl, room temperature, first ten minutes
  Aqueous stability: no apparent change
[3]; H2O, 4° C., read-out: product concentration
  remaining at 72 h: 90%
[3]; H2O, room temperature, 2 hours
  Aqueous stability: relatively unchanged
[3]; H2O, room temperature, 24 hours, read-out: product concentration
  remaining at 24 h: 56%
[3]; aqueous solution, 4° C.
  stability compared with 2'-MPA salt: significantly more stable than the 2'-MPA salt
[3]; aqueous solution, 4° C., 24 hours
  MPM salt remaining (summary statement): unchanged
[3]; water, aqueous solution, 4° C., read-out: MPM salt remaining (summary statement)
  remaining at 72 h: 88 to 91%
[4]
  solubility compared with paclitaxel: much higher than for paclitaxel

## CC(=O)O[C@H]1C(=O)[C@@]2(C)[C@H]([C@H](OC(=O)c3ccccc3)[C@]3(O)C[C@H](OC(=O)[C@H](O)[C@@H](NC(=O)c4ccccc4)c4ccccc4)C(C)=C1C3(C)C)[C@]1(OC(C)=O)CO[C@@H]1C[C@@H]2O [Paclitaxel, paclitaxel]
[5]
  effectiveness in chemotherapy: effective for chemotherapy for several types of neoplasms including breast

## CC(=O)O[C@H]1C(=O)[C@@]2(C)[C@H]([C@H](OC(=O)c3ccccc3)[C@]3(O)C[C@H](OC(=O)[C@H](Oc4cccc[n+]4C)[C@@H](NC(=O)c4ccccc4)c4ccccc4)C(C)=C1C3(C)C)[C@]1(OC(C)=O)CO[C@@H]1C[C@@H]2O [2'-MPA, Paclitaxel 2'-Methylpyridinium Acetate]
[6]; 4° C., 1 Hour
  Paclita. % (paclitaxel in 2'-MPA sample): 15%
  Unkno. % (unknown in 2'-MPA sample): No peak eluted
[6]; 4° C., 2 Weeks
  Paclita. % (paclitaxel in 2'-MPA sample): 9%
  Unkno. % (unknown in 2'-MPA sample): 10%
[6]; 4° C., 6 Hours
  Paclita. % (paclitaxel in 2'-MPA sample): 11%
  Unkno. % (unknown in 2'-MPA sample): 14%
[6]; 4° C., 18 Hours
  Paclita. % (paclitaxel in 2'-MPA sample): 10%
  Unkno. % (unknown in 2'-MPA sample): 17%
[6]; 4° C., 42 Hours
  Paclita. % (paclitaxel in 2'-MPA sample): 9%
  Unkno. % (unknown in 2'-MPA sample): 12%
[6]; 4° C., 66 Hours
  Paclita. % (paclitaxel in 2'-MPA sample): 11%
  Unkno. % (unknown in 2'-MPA sample): 16%
[6]; Room Temperature, 1 Hour
  Paclita. % (paclitaxel in 2'-MPA sample): 14%
  Unkno. % (unknown in 2'-MPA sample): 8%
[6]; Room Temperature, 6 Hours
  Paclita. % (paclitaxel in 2'-MPA sample): 14%
  Unkno. % (unknown in 2'-MPA sample): 8%
[6]; Room Temperature, 42 Hours
  Paclita. % (paclitaxel in 2'-MPA sample): 17%
  Unkno. % (unknown in 2'-MPA sample): 10%
[6]; Room Temperature, 66 Hours
  Paclita. % (paclitaxel in 2'-MPA sample): 13%
  Unkno. % (unknown in 2'-MPA sample): 8%
[6]; Room Temperature, 90 Hours
  Paclita. % (paclitaxel in 2'-MPA sample): 15%
  Unkno. % (unknown in 2'-MPA sample): 12%
[6]; [8]
  2'-MPA peak: 75%
  Paclitaxel peak in 2'-MPA sample: 15%
  Unknown peak in 2'-MPA sample: 10%
[6]; water/polyethylene glycol, 4° C., 1 Hour, read-out: 2'-MPA %
  remaining at 1 h: 85%
[6]; water/polyethylene glycol, 4° C., 2 Weeks, read-out: 2'-MPA %
  remaining at 336 h: 79%
[6]; water/polyethylene glycol, 4° C., 6 Hours, read-out: 2'-MPA %
  remaining at 6 h: 75%
[6]; water/polyethylene glycol, 4° C., 18 Hours, read-out: 2'-MPA %
  remaining at 18 h: 73%
[6]; water/polyethylene glycol, 4° C., 42 Hours, read-out: 2'-MPA %
  remaining at 42 h: 79%
[6]; water/polyethylene glycol, 4° C., 66 Hours, read-out: 2'-MPA %
  remaining at 66 h: 73%
[6]; water/polyethylene glycol, Room Temperature, 1 Hour, read-out: 2'-MPA %
  remaining at 1 h: 78%
[6]; water/polyethylene glycol, Room Temperature, 6 Hours, read-out: 2'-MPA %
  remaining at 6 h: 78%
[6]; water/polyethylene glycol, Room Temperature, 18 Hours, peaks of paclitaxel and unknown coeluted, read-out: 2'-MPA %
  remaining at 18 h: 69%
[6]; water/polyethylene glycol, Room Temperature, 42 Hours, read-out: 2'-MPA %
  remaining at 42 h: 73%
[6]; water/polyethylene glycol, Room Temperature, 66 Hours, read-out: 2'-MPA %
  remaining at 66 h: 79%
[6]; water/polyethylene glycol, Room Temperature, 90 Hours, read-out: 2'-MPA %
  remaining at 90 h: 73%
[7]
  stability on HPLC purification: decomposes rapidly
